The nature of data set [1]: Binding to aluminum hydroxide adjuvant, HPLC of supernatant. In kind it is physicochemical. As to conditions: 100 μg/dose, room temperature and 37° C., 1, 5 and 24 hours. On the procedure: The binding of the compounds of Formula (I) provided herein to aluminum-containing adjuvants at pH 9 and pH 6.5 was evaluated using HPLC to monitor the presence of the compound of Formula (I) in the supernatant.
(§1) Compound 1 (0.5 mg/mL) was dissolved in 10 mM NaOH and added to aluminum hydroxide adjuvant (2 mg/mL) resulting in a 100 μg/dose formulation. The supernatant was evaluated with HPLC using a ballistic gradient (from 10% CH3CN-0.1% TFA to 100% CH3CN-0.1% TFA in 2.5 minutes) on a C18 ([…]×4.6 mm) ACE column at 45° C. To evaluate the effect of supernatant temperature and incubation time on binding, the supernatant was evaluated at a supernatant temperature of room temperature and at 37° C. after 1 hour, 5 hours and 24 hours. A control without aluminum hydroxide was also evaluated.
(§2) Compound 5 (1 mg/mL) was dissolved in 10 mM NaOH and added to aluminium hydroxide adjuvant (2 mg/mL) resulting in a 100 μg/dose formulation. The supernatant was evaluated with HPLC using a ballistic gradient (from 10% CH3CN-0.1% TFA to 100% CH3CN-0.1% TFA in 2.5 minutes) on a C18 ([…]×4.6 mm) ACE column at 45° C. To evaluate the effect of supernatant temperature and incubation time on binding, the supernatant was evaluated at a supernatant temperature of room temperature and at 37° C. after 1 hour, 5 hours and 24 hours. A control without aluminum hydroxide was also evaluated.
as §1, with “to aluminium” for “to aluminum”, “formulation. The pH of the solution was adjusted to pH 6.5 using HCl.” for “formulation.”
as §2, with “histidine buffer (1 mg/mL)” for “NaOH”

Data set [2] in a line: Adsorption to and desorption from aluminum hydroxide, HPLC (compound-modified alum formulation). In kind it is physicochemical. As to conditions: alum formulation as for compound 1. On the procedure: SDS-PAGE was used to evaluate the effect of the binding of compound 1 to aluminum hydroxide adjuvant on the ability of MenB antigens to bind to aluminum hydroxide adjuvant. Compound 1 was dissolved in 10 mM NaOH at 0.5 mg/ml final concentration. Alum and Compound 1 were combined at 1:6 (Compound 1:Alum) weight ratio in the presence of 10 mM Histidine final concentration. The pH was adjusted to 9.2 and the mixture was gently agitated for 3 hours at room temperature, allowing the reaction to occur. The mixture was centrifuged at 5000×g for 10 minutes and the supernatant discarded. The pellet (i.e. the compound 1-modified Alum) was resuspended in the initial Alum buffer to obtain the starting alum concentration. The pH was adjusted to 6.5. The modified Alum was then used for the formulation with the MenB antigens.
The adsorption of compound 16 and compound 17 to aluminum hydroxide was also evaluated using the alum formulation described above for compound 1. […] In addition, SDS-PAGE analysis of antigen binding in the presence of compound 16 or compound 17 was carried out as described above.

Data set [3] in a line: Muscle levels 24 hours after intramuscular injection. As to conditions: 24 hours after intramuscular injection (100 μg) with protein antigens, Balb/C mice.
Data set [4] can be described thus: Adsorption to aluminum hydroxide, LC-MS/MS of supernatant. The method, then:
The resulting solution was diluted 10-fold with blank histidine buffer to a final compound concentration of 0.1 mg/mL. Diluted solutions were incubated at 37° C. for 5 hours. The samples were centrifuged at 14,000 rpm for 10 minutes to pellet the insoluble. The supernatant (along with an internal standard) was then evaluated by LC-MS/MS using a ballistic gradient (from 5% CH3CN-0.5% formic acid to 95% CH3CN-1.0% formic acid in 3.5 minutes) on a Waters Atlantis dC18 (50 mm×2.1 mm) column at room temperature against a calibration curve prepared at known compound concentrations ranging from 0.005 to 50 μM. The concentration in the supernatant was calculated as % unbound to alum compared to control; the % bound to alum was calculated as 100% minus % unbound.

The nature of data set [5]: Systemic serum exposure after intramuscular injection. In kind it is in vivo. The conditions noted are these: intramuscular injection 100 μg (4 mg/kg), Balb/C mice. The method, then: Systemic serum exposure of the compounds is followed for 24 hours.
A further data set is described as follows: Solubility. In kind it is physicochemical.
Data set [6] is described as follows: Phosphate desorption and organic solvent extraction from aluminum hydroxide, HPLC. In kind it is physicochemical. The method, then:
An organic solvent extraction method was used to evaluate whether compound 1 was covalently bound to aluminum hydroxide. The formulation was prepared as follows: 2 mg/ml aluminum hydroxide, 100 μg/dose compound 1, 10 mM histidine buffer) and the pH was adjusted to 9. A control formulation without aluminum hydroxide was also prepared.
One ml of the formulation containing Alum was mixed with 1 ml of KH2PO4 1M pH 9 (0.5M final conc, pH 9) and was left in gentle agitation overnight at 37° C. to allow desorption of compound 1 (compound 5) from the aluminum hydroxide via ligand exchange with the phosphate anions. Organic extraction was then performed: 1 ml of each sample was mixed with 1 ml of n-butanol and vortexed. After the formation of 2 phases, the upper phase (butanol) was recovered, dried with N2 and resuspended in MeOH/10 mM NaOH. HPLC analysis was run both for the formulation supernatants and for the butanol extracted samples (C18 column; 0-100% B in 2 min; A=0.1% TFA in H2O; B=0.1% TFA in ACN). […]

A short description of data set [7]: Confocal microscopy of aluminium hydroxide adjuvant mixed with compound. In kind it is physicochemical. As to conditions: adjuvant 3 mg/ml, compound 0.25 mg/ml. From the text: Compound 1 is intrinsically fluorescent.
Setting [8] is: pH 9, 10 mM NaOH, aluminum hydroxide 2 mg/mL.
The mark [9] stands for this setting: with aluminium hydroxide adjuvant.
The mark [10] stands for this setting: without aluminium hydroxide adjuvant.
Where [11] appears, read: 10 mM histidine buffer pH 6.8, final compound concentration 0.1 mg/mL, 37° C. for 5 hours, 100% minus % unbound.

These results are taken from patent publication US9950062B2, “Compounds and compositions as TLR activity modulators” (priority 2009, dated 2018).

Structures are written as SMILES.

Consider `Cc1ccc2c(c1)nc(N)c1ncc(CCc3ccc(OCCCC(F)(F)P(=O)(O)O)cc3C)cc12` [Compound 5, 4-(4-(2-(5-amino-8-methylbenzo[f][1,7]naphthyridin-2-yl)ethyl)-3-methylphenoxy)-1,1-difluorobutylphosphonic acid], for which the “presence of compound in supernatant when aluminum hydroxide included (HPLC)” value in data set [1] (pH 6.7, 10 mM histidine buffer, aluminium hydroxide 2 mg/mL) was “not present in the supernatant”; in data set [1] (setting [8]), “not present in the supernatant”.
Take `Cc1cc(OCCOCCOCCC(F)(F)P(=O)(O)O)ccc1CCc1cnc2c(N)nc3cc(CCC(=O)O)ccc3c2c1` [Compound 17, 3-(5-amino-2-(4-(2-(2-(3,3-difluoro-3-phosphonopropoxy)ethoxy)ethoxy)-2-methylphenethyl)benzo[f][1,7]naphthyridin-8-yl)propanoic acid]: the “compound in supernatant after addition of aluminum hydroxide (HPLC)” value in data set [2] is “no compound was observed in the supernatant”. Besides, the “muscle level of compound” value in data set [3] (setting [9]) is “readily detected”; in data set [3] (setting [10]), “undetectable”. Further, the “% bound to alum” value in data set [4] (setting [11]) was 96.2%.
Consider `Cc1cc(OCCOCCC(F)(F)P(=O)(O)O)ccc1CCc1cnc2c(N)nc3cc(CCC(=O)O)ccc3c2c1` [Compound 19, 3-(5-amino-2-(4-(2-(3,3-difluoro-3-phosphonopropoxy)ethoxy)-2-methylphenethyl)benzo[f][1,7]naphthyridin-8-yl)propanoic acid], for which the “% bound to alum” value in data set [4] (5 h, 0.1 mg/mL, pH 6.8) is reported as 96.0%.
Take `Cc1cc(OCCCC(F)(F)P(=O)(O)O)ccc1CCc1cnc2c(N)nc3cc(CCC(=O)O)ccc3c2c1` [Compound 16, 3-(5-amino-2-(4-(4,4-difluoro-4-phosphonobutoxy)-2-methylphenethyl)benzo[f][1,7]naphthyridin-8-yl)propanoic acid]: the “compound in supernatant after addition of aluminum hydroxide (HPLC)” value in data set [2] is “no compound was observed in the supernatant”. For the same compound, the “muscle level of compound” value in data set [3] (setting [9]) is given as “readily detected”; in data set [3] (setting [10]), “undetectable”. Moreover, the figures for the “serum concentration profile over 24 hours” value in data set [5] (adsorbed to aluminium hydroxide adjuvant) and in data set [5] (unadsorbed (buffer alone)) were “much flatter response which is sustained for a longer period” and “high initial serum concentration which rapidly declines”, respectively. In data set [4] (setting [11]), the “% bound to alum” value was 94.5%.
As for `Cc1ccc2c(c1)nc(N)c1ncc(CCc3ccc(OCCCP(=O)(O)O)cc3C)cc12` [Compound 1, 3-(4-(2-(5-amino-8-methylbenzo[f][1,7]naphthyridin-2-yl)ethyl)-3-methylphenoxy)propylphosphonic acid], in “Solubility”, the “solubility in histidine buffer” value is reported as “poorly soluble”. The “presence of compound in supernatant when aluminum hydroxide included (HPLC)” value in data set [1] (pH 6.5 (adjusted with HCl), aluminium hydroxide 2 mg/mL) is recorded as “not present in the supernatant”; in data set [1] (setting [8]), “not present in the supernatant”. Moreover, in data set [6] (0.5M KH2PO4 pH 9, overnight at 37° C.), the “quantity of compound in supernatant of formulation treated with KH2PO4 (desorption by phosphate anions)” value is reported as “Increased quantities”. For the same compound, the “Concentration” value in data set [6] (control/extract: n-butanol extract of control formulation without aluminum hydroxide) stood at 217 ± 1 µg/mL; in data set [6] (extaract: n-butanol extract of formulation with alum) it was 27 ± 1 µg/mL; in data set [6] (phosphate supernatant: formulation with alum treated with 0.5M KH2PO4 pH 9 overnight at 37° C.), 59 ± 1 µg/mL; in data set [6] (phosphate/extract: n-butanol extract of KH2PO4-treated formulation with alum), 119 ± 1 µg/mL; in data set [6] (supernatant control: formulation without aluminum hydroxide), 329 ± 1 µg/mL; in data set [6] (supernatant of formulation with 2 mg/ml aluminum hydroxide, 10 mM histidine buffer, pH 9), 5 ± 1 µg/mL. The “association with aluminium hydroxide adjuvant particles (confocal microscopy)” value in data set [7] was “associates with particles of the insoluble metal salt”.
